Reference: ChEMBL document CHEMBL1914290, “3,4-Disubstituted oxazolidin-2-ones as constrained ceramide analogs with anticancer activities” (Bioorg Med Chem, 2011)
Activity calls are given as the source filed them. The rule behind the calls is not given here.

Columns and labels:
HL-60 [1] = assay: Antileukemic activity against human HL60 cells at 20 uM after 16 hrs by MTT assay; type: functional, cell-based
HL-60 [2] = assay: Induction of apoptosis in human HL60 cells assessed as DNA fragmentation at 20 uM after 15 hrs; type: functional, cell-based

SMILES	Activity (HL-60 [1])	Activity (HL-60 [2])
CCCC/C=C/[C@@H](O)[C@@H]1COC(=O)N1C(=O)C1CCCC1	inactive	
CCCCCCCCCCCCC/C=C/[C@@H](O)[C@@H]1COC(=O)N1C(=O)c1ccc([N+](=O)[O-])cc1	Active	Active
CCCCCC/C=C/[C@@H](O)[C@@H]1COC(=O)N1C(=O)C1CCCC1	inactive	
O=C1OC[C@@H]([C@H](O)/C=C/Cc2ccccc2)N1C(=O)C1CCCC1	inactive	
CCCCCCCCCCCCC/C=C/[C@@H](O)[C@@H]1COC(=O)N1C(=O)C(C)(C)C	Active	
CCCCCCCCCCCCC/C=C/[C@@H](O)[C@@H]1COC(=O)N1C(=O)C1CCCC1	Active	Active
CCCCCCCCCCCCC/C=C/[C@@H](O)[C@@H]1COC(=O)N1C(C)=O	Active	Active
CCCCCCCCCCCCC/C=C/[C@@H](O)[C@@H]1COC(=O)N1C(=O)c1ccccc1OC	Active	
CCCCCCCCCCCCC/C=C/[C@@H](O)[C@@H]1COC(=O)N1C(=O)CC	Active	Active
CCCCCCCCCCCCC/C=C/[C@@H](O)[C@@H]1COC(=O)N1C(=O)c1cccc2ccccc12	Active	
CCCCCCCCCCCCC/C=C/[C@@H](O)[C@@H]1COC(=O)N1C(=O)Cc1ccccc1	inactive	
CCCCCCCCCCCCC/C=C/[C@@H](O)[C@@H]1COC(=O)N1C(=O)c1ccccc1	Active	Active
CCCCCCCCCCCCC/C=C/[C@@H](O)[C@@H]1COC(=O)N1C(=O)c1ccco1	Active	
CCCCCCCCCCCCC/C=C/[C@@H](O)[C@@H]1COC(=O)N1C(=O)C/C=C/c1ccccc1	inactive	
O=C1OC[C@@H]([C@H](O)/C=C/C2CCCCC2)N1C(=O)C1CCCC1	inactive	
CCCCCCCCCC/C=C/[C@@H](O)[C@@H]1COC(=O)N1C(=O)C1CCCC1	Active	
CCCCCCCCCCCCC/C=C/[C@@H](O)[C@@H]1COC(=O)N1C(=O)CCCCCCCCCCCCCCC	inactive	Active
O=C1OC[C@@H]([C@H](O)/C=C/C2CCCC2)N1C(=O)C1CCCC1	inactive	
CCCCCCCC/C=C/[C@@H](O)[C@@H]1COC(=O)N1C(=O)C1CCCC1	inactive	
CCCCCCCCCCCCC/C=C/[C@@H](O)[C@@H]1COC(=O)N1C(=O)C(C)C	Active	Active
